Ends that are not written are not given here.
Key:
[1] = system: PTI response in Arabidopsis thaliana (Col-0) leaves; test: Raman spectroscopy of elicitor-infiltrated leaves, Elicitor Response Factor (ERF); assay type: in vivo; conditions: WT, 1 μM elicitor, distal region (DR)
[2] = system: PTI response in Arabidopsis thaliana (Col-0) leaves; test: as above; assay type: in vivo; conditions: for ERF (Elicitor Response Factor) value: WT Col-0, 1 μM elicitor, proximal region, 10 hpi; for ERF value: proximal region (PR), 48 and 72 hpi
Description: Plant growth and elicitor/pathogen infiltration: Arabidopsis thaliana (Col-0) wild-type (WT) and mutants including fls2 (salk_062054), efr-2 (salk_068675), bak1 (salk_116202), bik1 (salk_005291), rbohd (salk_083046), pub12/13 (Zhou et al., 2018) and pub25/26 (Wang et al., 2018) were used. Ten-day old seedlings grown on soil were transferred to a growth room at 70% humidity and 21° C. with a 10-h-light/14-h-dark photoperiod (short-day condition). Light intensity was 100 μmol/m^2s^−1. Five to 6 week-old plants with about 17-18 leaves were used. Flg22 contains the 22-amino acid sequence […] (SEQ ID NO:1) corresponding to a conserved motif of the amino terminus of flagellin from Pseudomonas species. Elf18 contains the sequence Ac[…] (SEQ ID NO:2) corresponding to the conserved N-terminal 18-amino acid peptide of the bacterial protein elongation factor Tu (EF-Tu). These peptides (Axil Scientific Pte Ltd) were dissolved in sterile H2O to a concentration of 5 mM and aliquots of 100 μM stock solution were stored at −20° C. 3-hydroxydecanoic acid (Sigma, H3648) (Kutschera et al., 2019) was dissolved in ethanol to a concentration of 5 mM, and Chitin, GlcNacβ1-4[GlcNacβ1-4GlcNAc]5GlcNAc (ELICITYL, GLU437) was dissolved in water to a concentration of 5 mM. Aliquots of 100 μM stock solutions were stored at −20° C.
Custom-built Raman spectroscopy system and spectral data analysis: The Raman spectroscopy system with an 830 nm excitation wavelength was previously described (Huang et al., 2020). The Raman shift axis was calibrated using a polystyrene sample (Creely et al., 2005) and Raman spectra were recorded in the range of 400 cm^−1-1700 cm^−1. The 830 nm excitation wavelength has the advantage of deeper penetration depth and generating comparatively lower fluorescence background signal from the leaf tissue, resulting in spectra with a higher signal to noise ratio (SNR). The pre-processing of the Raman spectra consisted of cosmic ray removal and smoothing with the Savitzky-Golay filter function (MATLAB Inc., USA) with 5th order polynomial and frame length of 11. The Raman spectra presented here were obtained after removing any residual fluorescence background using a polynomial subtraction method with non-negative constraints (Lieber & Mahadevan-Jansen, 2003).
For Arabidopsis, two plants from each independent biological sample were investigated (Huang et al., 2020). The 7th or 8th leaf of 5-6 week-old plants were used for infiltrations (FIGS. 1A-1E) At the designated time after infiltrations, leaf discs (6 mm diameter) were excised with a puncher from regions proximal to the infiltrated sites (FIG. 2A). Two leaf discs were obtained from each elicitor-treated leaf, one from the left and the other from the right side of the central leaf vein. A total of 4 leaf discs were analyzed for each genotype per experiment. The leaf discs were placed with a drop of water between a fused silica slide of thickness 0.5 mm and a fused silica coverslip, which was 100 μm thick. Three locations were measured in each leaf disc, with 5 Raman spectra acquired per location and an exposure time of 10 s per spectrum. Thus, an average Raman spectrum of an independent biological sample was obtained from the mean of total 60 Raman spectra. The experiments were repeated with 3-4 independent biological samples.
A custom-built near infrared excitation Raman instrument (FIG. 1E) to measure Raman spectra from mock- or elicitor-infiltrated leaf samples (FIGS. 2B-2C). […]

[3] = system: PTI-specific marker genes in Arabidopsis leaves; test: Gene expression analysis of PTI marker genes by qRT-PCR; assay type: in vivo, Arabidopsis thaliana; conditions: infiltrated leaves, 1.0 μM elicitor
Description: RNA extraction and gene expression analysis by qRT-PCR: Total RNA was extracted from the entire infiltrated leaf using RNeasy plant mini kit (74104; Qiagen) with DNase I (79254; Qiagen) treatment. cDNA synthesis and RT-PCR were performed as described (Park et al., 2019). Expression of the Arabidopsis Act2 (At3g18780) was used as an internal control. Primer pairs for quantitative RT-PCR were designed using Primer-BLAST (https://www.ncbi.nlm.nih.gov/tools/primer-blast/index.cgi) or manually by eye.
flg22 and elf18 were used to induce plant innate immunity responses without related pathogenic symptoms (Bektas & Eulgem, 2015). To reduce variability between biological samples, Arabidopsis wild-type (Col-0) and mutant plants were grown under short-day conditions for about 5-6 weeks with about 17-18 leaves (Farmer et al., 2013; Kurenda et al., 2019) (FIG. 1A). The abaxial side of leaf 7th or 8th was infiltrated with a needleless syringe containing (50 μl) water, 1.0 μM flg22 or 1.0 μM elf18 (FIG. 1B). […] However, compared to mock infiltration, infiltration of either elicitor induced expression of PTI-specific marker genes of the PTI pathway but with different kinetics (FIGS. 3A-3C). […] Expression of most activated genes returned to basal levels by 24 hours (FIGS. 3A-3C) although several genes (PR1, WRYK29, and WRKY53) still maintained high expression levels at this time point.

[4] = fls2 mutant, 24 hpi, 1 μM elicitor

Row | Substance | ERF value [1] | ERF (Elicitor Response Factor) value [2] | ERF value ([2]; WT, 1 μM elicitor) | Raman peak at 1065 cm^−1 ([2]; WT, 24 hpi) | Raman/ERF response [2, 4] | innate immunity response (gene expression and callose deposition data together) [3] | increase of ERF value from 10 hpi to 24 hpi ([2]; WT, 1 μM elicitor) | Raman peak intensity at 789.7 cm^−1 ([2]; WT, 24 hpi) | Raman/ERF response ([2]; efr-2 mutant, 24 hpi, 1 μM elicitor)
1 | AcSKEKFERTKPHVNVGTIG (SEQ ID NO:2) (Ac-SKEKFERTKPHVNVGTIG; listed as Pseudomonas sp.) [elf18, conserved N-terminal 18-amino acid peptide of the bacterial protein elongation factor Tu (EF-Tu)] | Lower ERF value | 0.63×10^4 | decreased to almost zero | specifically resulted in changes | remained responsive | induced rapid and robust innate immunity response | – | – | –
2 | QRLSTGSRINSAKDDAAGLQIA (SEQ ID NO:1) (listed as Pseudomonas sp.) [flg22] | Low ERF values | 1.12×10^4 | decreased to almost zero | – | refractory | induced rapid and robust innate immunity response | about 8 times | statistically significant change | responded

From patent US20260243686A1, “REAL TIME DETECTION AND QU[…] PLANT INNATE IMMUNITY RESPONSE USING RAMAN SPECTROSCOPY” (TEMASEK LIFE SCIENCES […], priority 2021, published 2026)
